Drawing on patent US12269831B2, “Modulators of cystic fibrosis transmembrane conductance regulator” (Vertex Pharmaceuticals Incorporated, priority 2020, dated 2025), this text covers ring closure, isolated yield and EC50 for 21 molecules.

For data set [1] the following is noted: 14-membered ring.
Data set [2] addresses T1, CFTR (F508del/MF-HBE cells) (Homo sapiens, UniProt P13569, DEL508-508).
T1 construct: human bronchial epithelial (HBE) cells derived from CF subjects heterozygous for F508del and a minimal function CFTR mutation (F508del/MF-HBE); endogenous in cells; host or cells: primary human bronchial epithelial (HBE) cells from CF subjects, genotype F508del/minimal function
Description: Ussing chamber assay of CFTR-mediated short-circuit currents (potentiator identification). The conditions noted are these: CFTR-mediated Isc, 18-24 h incubation at 37° C. with 10 μM (14S)-8-[3-(2-{dispiro[2.0.2.1]heptan-7-yl}ethoxy)-1H-pyrazol-1-yl]-... corrector, 20% human serum. Type of data set: cell-based. How it is done: Ussing Chamber Assay of CFTR-Mediated Short-Circuit Currents
Ussing chamber experiments were performed using human bronchial epithelial (HBE) cells derived from CF subjects heterozygous for F508del and a minimal function CFTR mutation (F508del/MF-HBE) and cultured as previously described (Neuberger T, Burton B, Clark H, Van Goor F Methods Mol Biol 2011:741:39-54). After four days the apical media was removed, and the cells were grown at an air liquid interface for >14 days prior to use.
To isolate the CFTR-mediated short-circuit (Isc) current, F508del/MF-HBE grown on Costar® Snapwell™ cell culture inserts were mounted in an Ussing chamber and the transepithelial ISC was measured under voltage-clamp recording conditions (Vhold=0 mV) at 37° C. The basolateral solution contained (in mM) 145 NaCl, 0.83 K2HPO4, 3.3 KH2PO4, 1.2 MgCl2, 1.2 CaCl2, 10 Glucose, 10 HEPES (pH adjusted to 7.4 with NaOH) and the apical solution contained (in mM) 145 NaGluconate, 1.2 MgCl2, 1.2 CaCl2, 10 glucose, 10 HEPES (pH adjusted to 7.4 with NaOH) and 30 μM amiloride to block the epithelial sodium channel. Forskolin (20 μM) was added to the apical surface to activate CFTR, followed by apical addition of a CFTR inhibitor cocktail consisting of BPO, GlyH-101 and CFTR inhibitor 172 (each at 20 μM final assay concentration) to specifically isolate CFTR currents. The CFTR-mediated Isc (μA/cm^2) for each condition was determined from the peak forskolin response to the steady-state current following inhibition.
Identification of Potentiator Compounds
The activity of the CFTR potentiator compounds on the CFTR-mediated Isc was determined in Ussing chamber studies as described above. The F508del/MF-HBE cell cultures were incubated with the potentiator compounds at a range of concentrations in combination with 10 μM (14S)-8-[3-(2-{dispiro[2.0.2.1]heptan-7-yl}ethoxy)-1H-pyrazol-1-yl]-12,12-dimethyl-2λ^6-thia-3,9,11,18,23-pentaazatetracyclo[17.3.1.111,14.05,10]tetracosa-1(22),5,7,9,19(23),20-hexaene-2,2,4-trione for 18-24 hours at 37° C. and in the presence of 20% human serum. The concentration of potentiator compounds and (14S)-8-[3-(2-{dispiro[2.0.2.1]heptan-7-yl}ethoxy)-1H-pyrazol-1-yl]-12,12-dimethyl-2λ^6-thia-3,9,11,18,23-pentaazatetracyclo[17.3.1.111,14.05,10]tetracosa-1(22),5,7,9,19(23),20-hexaene-2,2,4-trione used during the 18-24 hours incubations was kept constant throughout the Ussing chamber measurement of the CFTR-mediated Isc to ensure compounds were present throughout the entire experiment. The efficacy and potency of the putative F508del potentiators was compared to that of the known Vertex potentiator, ivacaftor (N-[2,4-bis(1,1-dimethylethyl)-5-hydroxyphenyl]-1,4-dihydro-4-oxoquinoline-3-carboxamide).

Read-outs that look alike come from different tables or passages of the source. Some results are limits rather than exact numbers.

T1 sequence (P13569 with tags, fused parts or gaps DEL508-508): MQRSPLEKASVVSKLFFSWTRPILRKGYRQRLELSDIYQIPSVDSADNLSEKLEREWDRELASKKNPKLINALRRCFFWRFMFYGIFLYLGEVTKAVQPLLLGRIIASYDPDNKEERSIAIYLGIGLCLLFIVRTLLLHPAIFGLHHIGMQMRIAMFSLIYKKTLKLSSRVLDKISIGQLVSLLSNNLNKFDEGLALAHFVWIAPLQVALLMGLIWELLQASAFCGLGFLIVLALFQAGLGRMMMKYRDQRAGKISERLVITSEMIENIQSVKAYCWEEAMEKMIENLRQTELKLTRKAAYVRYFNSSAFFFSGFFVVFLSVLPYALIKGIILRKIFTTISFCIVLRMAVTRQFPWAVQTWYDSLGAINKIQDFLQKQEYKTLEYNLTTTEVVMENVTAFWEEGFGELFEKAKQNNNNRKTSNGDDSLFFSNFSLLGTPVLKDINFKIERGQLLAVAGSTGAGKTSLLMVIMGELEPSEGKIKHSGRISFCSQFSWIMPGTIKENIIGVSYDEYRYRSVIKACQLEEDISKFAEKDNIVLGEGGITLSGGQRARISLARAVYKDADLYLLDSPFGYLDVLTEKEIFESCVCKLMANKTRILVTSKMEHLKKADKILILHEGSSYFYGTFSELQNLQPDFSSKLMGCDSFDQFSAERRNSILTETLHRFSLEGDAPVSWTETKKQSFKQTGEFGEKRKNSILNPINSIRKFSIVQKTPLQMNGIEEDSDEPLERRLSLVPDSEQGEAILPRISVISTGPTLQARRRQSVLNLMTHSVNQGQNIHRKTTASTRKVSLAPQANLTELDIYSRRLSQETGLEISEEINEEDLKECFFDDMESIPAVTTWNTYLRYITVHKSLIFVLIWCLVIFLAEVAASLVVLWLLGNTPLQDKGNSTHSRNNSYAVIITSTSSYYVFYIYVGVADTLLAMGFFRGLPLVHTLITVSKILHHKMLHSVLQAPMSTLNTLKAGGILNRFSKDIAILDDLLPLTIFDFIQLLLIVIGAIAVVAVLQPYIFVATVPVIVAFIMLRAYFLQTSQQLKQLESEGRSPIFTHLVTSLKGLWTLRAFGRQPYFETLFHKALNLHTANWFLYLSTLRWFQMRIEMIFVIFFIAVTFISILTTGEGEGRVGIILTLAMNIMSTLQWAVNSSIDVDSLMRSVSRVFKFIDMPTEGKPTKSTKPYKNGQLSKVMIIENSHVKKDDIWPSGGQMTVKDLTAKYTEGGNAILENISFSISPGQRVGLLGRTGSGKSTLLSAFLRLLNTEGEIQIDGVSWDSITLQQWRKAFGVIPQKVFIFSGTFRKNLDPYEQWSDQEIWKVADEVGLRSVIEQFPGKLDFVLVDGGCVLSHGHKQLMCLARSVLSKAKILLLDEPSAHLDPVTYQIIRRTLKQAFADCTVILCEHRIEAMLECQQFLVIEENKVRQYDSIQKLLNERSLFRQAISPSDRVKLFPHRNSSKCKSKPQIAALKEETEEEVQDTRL

`C[C@@H]1CC=CCC[C@](OCc2ccccc2)(C(F)(F)F)C2=NN=C(O2)c2nc(c(C(F)F)cc2NC(=O)OC(C)(C)C)O1` (mixture of isomers): the ring closure, isolated yield in data set [1] (from C=CCC[C@@](OCc1ccccc1)(c1nnc(-c2nc(O[C@H](C)CC=C)c(C(F)F)cc2NC(=O)OC(C)(C)C)o1)C(F)(F)F, rcm bond, Zhan-1B, DCE, 3.0 mM, 60.0 °C, 2.0 h) worked out at 26%.
Molecule `CC1CC=CCCC(OCc2ccccc2)(C(F)(F)F)C2=NN=C(O2)c2nc(c(C(F)(F)F)cc2NC(=O)OC(C)(C)C)O1` (mixture of isomers) came in with a ring closure, isolated yield in data set [1] (from C=CCCC(OCc1ccccc1)(c1nnc(-c2nc(OC(C)CC=C)c(C(F)(F)F)cc2NC(=O)OC(C)(C)C)o1)C(F)(F)F, rcm bond, Zhan-1B, DCE, 4.57 mM, 70.0 °C, 16.0 h) of 36%.
The molecule `C[C@@H]1CCC=CC(O)C(OCc2ccccc2)(C(F)(F)F)C2=NN=C(O2)c2nc(c(C(F)(F)F)cc2N)O1` (mixture of isomers) came in with a ring closure, isolated yield in data set [1] (from C=CCC[C@@H](C)Oc1nc(-c2nnc(C(OCc3ccccc3)(C(O)C=C)C(F)(F)F)o2)c(N)cc1C(F)(F)F, rcm bond, Zhan-1B, DCE, 3.1 mM, 70.0 °C, 3.5 h) of 76%.
Turning to `CC(C)(C)OC(=O)N(C(=O)OC(C)(C)C)c1cc(C(F)(F)F)c2nc1-c1nnc(o1)[C@@](OCc1ccccc1)(C(F)(F)F)CCC=CC[C@H](COCc1ccccc1)O2` (mixture of isomers), the ring closure, isolated yield in data set [1] (from C=CCC[C@@](OCc1ccccc1)(c1nnc(-c2nc(O[C@H](CC=C)COCc3ccccc3)c(C(F)(F)F)cc2N(C(=O)OC(C)(C)C)C(=O)OC(C)(C)C)o1)C(F)(F)F, rcm bond, Zhan-1B, DCE, 3.72 mM, 60.0 °C, 2.5 h) is 46%.
Molecule `C[C@@H]1CCCOCC(OCc2ccccc2)(C(F)(F)F)C2=NN=C(O2)c2nc(c(C(F)(F)F)cc2N(C(=O)OC(C)(C)C)C(=O)OC(C)(C)C)O1` (stereo partly drawn) displayed a ring closure, isolated yield in data set [1] (from C[C@H](O)CCCOCC(OCc1ccccc1)(c1nnc(-c2nc(O)c(C(F)(F)F)cc2N(C(=O)OC(C)(C)C)C(=O)OC(C)(C)C)o1)C(F)(F)F, ether bond, PPh3/DIAD, toluene, 6.1 mM, 6.0 h) of 59%.
On to `C[C@@H]1CCOCCC(OCc2ccccc2)(C(F)(F)F)C2=NN=C(O2)c2nc(c(C(F)(F)F)cc2N(C(=O)OC(C)(C)C)C(=O)OC(C)(C)C)O1` (stereo partly drawn), for which the ring closure, isolated yield in data set [1] (from C[C@H](O)CCOCCC(OCc1ccccc1)(c1nnc(-c2nc(O)c(C(F)(F)F)cc2N(C(=O)OC(C)(C)C)C(=O)OC(C)(C)C)o1)C(F)(F)F, ether bond, PPh3/DIAD, toluene, 10.2 mM, 7.0 h) stood at 57%.
Regarding `C[C@@H]1CC=CCC[C@](OCc2ccccc2)(C(F)(F)F)C2=NN=C(O2)c2nc(c(C(F)(F)F)cc2Cl)O1` (mixture of isomers), the ring closure, isolated yield in data set [1] (from C=CCC[C@@](OCc1ccccc1)(c1nnc(-c2nc(O[C@H](C)CC=C)c(C(F)(F)F)cc2Br)o1)C(F)(F)F, rcm bond, Zhan-1B, DCE, 2.2 mM, 60.0 °C, 2.0 h) was determined as 47%.
In the case of `CC(C)(C)OC(=O)Nc1cc(C(F)(F)F)c2nc1-c1nnc(o1)C(OCc1ccccc1)(C(F)(F)F)CC=CCc1ccccc1O2` (mixture of isomers), in data set [1] (from C=CCc1ccccc1Oc1nc(-c2nnc(C(CC=C)(OCc3ccccc3)C(F)(F)F)o2)c(NC(=O)OC(C)(C)C)cc1C(F)(F)F, rcm bond, Grubbs II, DCE, 5.12 mM, 70.0 °C, 21.0 h), the ring closure, isolated yield was 62%.
Molecule `CC(C)C1CC=CCC[C@](OCc2ccccc2)(C(F)(F)F)C2=NN=C(O2)c2nc(c(C(F)(F)F)cc2N(C(=O)OC(C)(C)C)C(=O)OC(C)(C)C)O1` (mixture of isomers) gave a ring closure, isolated yield in data set [1] (from C=CCC[C@@](OCc1ccccc1)(c1nnc(-c2nc(OC(CC=C)C(C)C)c(C(F)(F)F)cc2N(C(=O)OC(C)(C)C)C(=O)OC(C)(C)C)o1)C(F)(F)F, rcm bond, Zhan-1B, DCE, 2.09 mM, 60.0 °C, 6.0 h) of 61%.
The molecule `O=[N+]([O-])c1cc(C(F)(F)F)c2nc1-c1nnc(o1)[C@@](OCc1ccccc1)(C(F)(F)F)CCC=CCC(C1CC1)O2` (mixture of isomers) yielded a ring closure, isolated yield in data set [1] (from C=CCC[C@@](OCc1ccccc1)(c1nnc(-c2nc(OC(CC=C)C3CC3)c(C(F)(F)F)cc2[N+](=O)[O-])o1)C(F)(F)F, rcm bond, Zhan-1B, DCE, 1.6 mM, 70.0 °C, 2.25 h) of 59%.
Turning to `CC(C)(C)OC(=O)Nc1cc(C(F)(F)F)c2nc1-c1nnc(o1)[C@@](OCc1ccccc1)(C(F)(F)F)CC=CCCCO2` (mixture of isomers), the ring closure, isolated yield in data set [1] (from C=CCCCOc1nc(-c2nnc([C@@](CC=C)(OCc3ccccc3)C(F)(F)F)o2)c(NC(=O)OC(C)(C)C)cc1C(F)(F)F, rcm bond, Zhan-1B, DCE, 6.7 mM, 60.0 °C, 4.0 h) is 65%.
Consider `CC(C)(C)OC(=O)N(C(=O)OC(C)(C)C)c1cc(C(F)(F)F)c2nc1-c1nnc(o1)[C@@](OCc1ccccc1)(C(F)(F)F)CCC=CC[C@@H](COCc1ccccc1)O2` (mixture of isomers), for which, in data set [1] (from C=CCC[C@@](OCc1ccccc1)(c1nnc(-c2nc(O[C@@H](CC=C)COCc3ccccc3)c(C(F)(F)F)cc2N(C(=O)OC(C)(C)C)C(=O)OC(C)(C)C)o1)C(F)(F)F, rcm bond, Zhan-1B, DCE, 2.78 mM, 60.0 °C, 5.5 h), the ring closure, isolated yield amounted to 45%.
As for `CC(C)(C)OC(=O)N(C(=O)OC(C)(C)C)c1cc(C(F)(F)F)c2nc1-c1nnc(o1)[C@@](OCc1ccccc1)(C(F)(F)F)CCC=CCC(Cc1ccc(F)cc1)O2` (mixture of isomers), the ring closure, isolated yield in data set [1] (from C=CCC[C@@](OCc1ccccc1)(c1nnc(-c2nc(OC(CC=C)Cc3ccc(F)cc3)c(C(F)(F)F)cc2N(C(=O)OC(C)(C)C)C(=O)OC(C)(C)C)o1)C(F)(F)F, rcm bond, Zhan-1B, DCE, 2.35 mM, 60.0 °C, 1.0 h) was determined as 63%.
Broadly, the EC50 is the concentration giving half of the maximal effect. For `C[C@@H]1CCC(O)CC[C@](O)(C(F)(F)F)C2=NN=C(O2)c2nc(c(C(F)(F)F)cc2N)O1` (single isomer, unassigned) [Compound 42], the EC50 in data set [2] was < 500 nM.
For the molecule `Nc1cc(C(F)(F)F)c2nc1-c1nnc(o1)C(O)(C(F)(F)F)CCCCCCO2` (racemic) [Compound 4, 17-Amino-6,15-bis(trifluoromethyl)-13,19-dioxa-3,4,18-triazatricyclo[12.3.1.12,5]nonadeca-1(18),2,4,14,16-pentaen-6-ol], the EC50 in data set [2] was < 500 nM.
With `C[C@H]1CCCCC[C@](O)(C(F)(F)F)C2=NN=C(O2)c2nc(c(C(F)(F)F)cc2N)O1` [Compound 14, (6R,12S)-17-amino-12-methyl-6,15-bis(trifluoromethyl)-13,19-dioxa-3,4,18-triazatricyclo[12.3.1.12,5]nonadeca-1(18),2,4,14,16-pentaen-6-ol], the EC50 in data set [2] was < 500 nM.
Same read-out and setting: the value for `C[C@@H]1CC(O)CCC[C@](O)(C(F)(F)F)C2=NN=C(O2)c2nc(c(C(F)(F)F)cc2N)O1` (single isomer, unassigned) [Compound 43] was < 500 nM; that for `CC(C)C1CCCCC[C@](O)(C(F)(F)F)C2=NN=C(O2)c2nc(c(C(F)(F)F)cc2N)O1` (single isomer, unassigned) [Compound 34] was < 500 nM; that for `Nc1cc(C(F)(F)F)c2nc1-c1nnc(o1)[C@@](O)(C(F)(F)F)CCCCCS2` [Compound 22, (6R)-16-amino-6,14-bis(trifluoromethyl)-18-oxa-12-thia-3,4,17-triazatricyclo[11.3.1.12,5]octadeca-1(17),2,4,13,15-pentaen-6-ol] was < 500 nM.
With `Nc1cc(C(F)(F)F)c2nc1-c1nnc(o1)C(O)(C(F)(F)F)CCCCc1ccccc1O2` (stereo not drawn) [Compound 17, 21-amino-6,19-bis(trifluoromethyl)-17,23-dioxa-3,4,22-triazatetracyclo[16.3.1.12,5.011,16]tricosa-1(22),2,4,11(16),12,14,18,20-octaen-6-ol], the EC50 in data set [2] is < 500 nM.
In the case of `C[C@@H]1CC2CC2CC[C@](O)(C(F)(F)F)C2=NN=C(O2)c2nc(c(C(F)(F)F)cc2N)O1` (single isomer, unassigned) [Compound 63], the EC50 in data set [2] was < 500 nM.
